ChEMBL document CHEMBL2440076, “New triarylpyrazoles as broad-spectrum anticancer agents: design, synthesis, and biological evaluation” (Eur J Med Chem, 2013)
pIC50: −log10 of the molar value.

Tests used:
SK-MEL-28 = assay: Growth inhibition of human SK-MEL-28 cells after 48 hrs by sulforhodamine B assay; assay type: functional; details: SK-MEL-28, 48 h
[1] = Growth inhibition of human Hs 578T cells assessed as cell growth at 10 uM after 48 hrs by sulforhodamine B assay; assay type: functional; details: read-out: Activity
CAKI-1 = assay: Growth inhibition of human CAKI-1 cells after 48 hrs by sulforhodamine B assay; assay type: functional; details: CAKI-1, 48 h; for CC50: read-out: LC50 (the source's name)
HT-29 = assay: Growth inhibition of human HT-29 cells after 48 hrs by sulforhodamine B assay; assay type: functional; details: HT-29, 48 h; for CC50: read-out: LC50 (the source's name)
MDA-MB-468 = assay: Growth inhibition of human MDA-MB-468 cells assessed as cell growth at 10 uM after 48 hrs by sulforhodamine B assay; assay type: functional; details: MDA-MB-468, 48 h, read-out: Activity
MDA-MB-435 = assay: Growth inhibition of human MDA-MB-435 cells after 48 hrs by sulforhodamine B assay; assay type: functional, cell-based; details: MDA-MB-435, 48 h; for CC50: read-out: LC50 (the source's name)
SK-MEL-5 = assay: Growth inhibition of human SK-MEL-5 cells assessed as cell growth at 10 uM after 48 hrs by sulforhodamine B assay; assay type: functional; details: SK-MEL-5, 48 h, read-out: Activity
OVCAR-4 = assay: Growth inhibition of human OVCAR4 cells assessed as cell growth at 10 uM after 48 hrs by sulforhodamine B assay; assay type: functional; details: OVCAR-4, 48 h, read-out: Activity
SN12C = assay: Growth inhibition of human SN12C cells assessed as cell growth at 10 uM after 48 hrs by sulforhodamine B assay; assay type: functional; details: read-out: Activity
SK-MEL-2 = assay: Growth inhibition of human SK-MEL-2 cells after 48 hrs by sulforhodamine B assay; assay type: functional; details: SK-MEL-2, 48 h
NCI-H460 = assay: Growth inhibition of human NCI-H460 cells assessed as cell growth at 10 uM after 48 hrs by sulforhodamine B assay; assay type: functional; details: NCI-H460, 48 h, read-out: Activity
TK-10 = assay: Growth inhibition of human TK10 cells assessed as cell growth at 10 uM after 48 hrs by sulforhodamine B assay; assay type: functional; details: TK-10, 48 h, read-out: Activity
A498 = assay: Growth inhibition of human A498 cells assessed as cell growth at 10 uM after 48 hrs by sulforhodamine B assay; assay type: functional; details: A498, 48 h, read-out: Activity
K562 = assay: Growth inhibition of human K562 cells after 48 hrs by sulforhodamine B assay; assay type: functional; details: K562, 48 h; for CC50: read-out: LC50 (the source's name)
NCI-H522 = assay: Growth inhibition of human NCI-H522 cells assessed as cell growth at 10 uM after 48 hrs by sulforhodamine B assay; assay type: functional; details: NCI-H522, 48 h, read-out: Activity
MDA-MB-231 = assay: Growth inhibition of human MDA-MB-231 cells after 48 hrs by sulforhodamine B assay; assay type: functional; details: MDA-MB-231, 48 h
T47D [2] = assay: Growth inhibition of human T47D cells assessed as cell growth at 10 uM after 48 hrs by sulforhodamine B assay; assay type: functional; details: read-out: Activity
BT-549 [3] = assay: Growth inhibition of human BT549 cells assessed as cell growth at 10 uM after 48 hrs by sulforhodamine B assay; assay type: functional; details: BT-549, 48 h, read-out: Activity
NCI-H23 = assay: Growth inhibition of human NCI-H23 cells after 48 hrs by sulforhodamine B assay; assay type: functional; details: NCI-H23, 48 h
HCT-15 = assay: Growth inhibition of human HCT15 cells assessed as cell growth at 10 uM after 48 hrs by sulforhodamine B assay; assay type: functional; details: HCT-15, 48 h, read-out: Activity
MOLT-4 = assay: Growth inhibition of human MOLT4 cells assessed as cell growth at 10 uM after 48 hrs by sulforhodamine B assay; assay type: functional; details: MOLT-4, 48 h, read-out: Activity
SK-OV-3 = assay: Growth inhibition of human SKOV3 cells assessed as cell growth at 10 uM after 48 hrs by sulforhodamine B assay; assay type: functional; details: SK-OV-3, 48 h, read-out: Activity
T47D [4] = assay: Growth inhibition of human T47D cells after 48 hrs by sulforhodamine B assay; assay type: functional; details: for CC50: read-out: LC50 (the source's name)
BT-549 [5] = assay: Growth inhibition of human BT549 cells after 48 hrs by sulforhodamine B assay; assay type: functional; details: BT-549, 48 h
RXF 393 = assay: Growth inhibition of human RXF393 cells after 48 hrs by sulforhodamine B assay; assay type: functional; details: RXF 393, 48 h
[6] = Growth inhibition of human HCC2998 cells assessed as cell growth at 10 uM after 48 hrs by sulforhodamine B assay; assay type: functional; details: HCC 2998, 48 h, read-out: Activity
RPMI-8226 = assay: Growth inhibition of human RPMI8226 cells assessed as cell growth at 10 uM after 48 hrs by sulforhodamine B assay; assay type: functional; details: RPMI-8226, 48 h, read-out: Activity
HOP-62 = assay: Growth inhibition of human HOP62 cells assessed as cell growth at 10 uM after 48 hrs by sulforhodamine B assay; assay type: functional; details: HOP-62, 48 h, read-out: Activity
PC-3 = assay: Growth inhibition of human PC3 cells assessed as cell growth at 10 uM after 48 hrs by sulforhodamine B assay; assay type: functional; details: PC-3, 48 h, read-out: Activity
SNB-19 = assay: Growth inhibition of human SNB19 cells after 48 hrs by sulforhodamine B assay; assay type: functional; details: SNB-19, 48 h
KM12 = assay: Growth inhibition of human KM12 cells assessed as cell growth at 10 uM after 48 hrs by sulforhodamine B assay; assay type: functional; details: KM12, 48 h, read-out: Activity
U-251 = assay: Growth inhibition of human U251 cells assessed as cell growth at 10 uM after 48 hrs by sulforhodamine B assay; assay type: functional; details: U-251, 48 h, read-out: Activity
A549 = assay: Growth inhibition of human A549/ATCC cells assessed as cell growth at 10 uM after 48 hrs by sulforhodamine B assay; assay type: functional; details: A549, 48 h, read-out: Activity
COLO 205 = assay: Growth inhibition of human COLO205 cells after 48 hrs by sulforhodamine B assay; assay type: functional; details: COLO 205, 48 h

Compound: COc1cc(-c2nn(-c3cccc(NC(=O)Nc4cccc(C(F)(F)F)c4)c3)cc2-c2ccncc2)ccc1Cl
- GI50 (SK-MEL-28): 1120 nM
- LC50 (SK-MEL-28): 21100 nM
- TGI (SK-MEL-28): 3350 nM
- growth at 10 µM [1]: -13.7%
- GI50 (CAKI-1): 1030 nM
- TGI (CAKI-1): 3510 nM
- CC50 (CAKI-1): > 50000 nM
- GI50 (HT-29): 748 nM
- TGI (HT-29): 1870 nM
- CC50 (HT-29): 4670 nM
- growth at 10 µM (MDA-MB-468): -27.6%
- GI50 (MDA-MB-435): 866 nM
- pIC50 (MDA-MB-435): 6.06
- TGI (MDA-MB-435): 2140 nM
- CC50 (MDA-MB-435): 8070 nM
- growth at 10 µM (SK-MEL-5): -97.8%
- growth at 10 µM (OVCAR-4): 11.1%
- growth at 10 µM (SN12C): 7.22%
- GI50 (SK-MEL-2): 970 nM
- LC50 (50% lethal concentration) (SK-MEL-2): 3960 nM
- TGI (SK-MEL-2): 1960 nM
- growth at 10 µM (NCI-H460): -7.91%
- growth at 10 µM (TK-10): 2.65%
- growth at 10 µM (A498): -5.17%
- GI50 (K562): 584 nM
- TGI (K562): > 50000 nM
- CC50 (K562): > 50000 nM
- growth at 10 µM (NCI-H522): -30.8%
- GI50 (MDA-MB-231): 811 nM
- LC50 (MDA-MB-231): 25500 nM
- TGI (MDA-MB-231): 2370 nM
- growth at 10 µM (T47D [2]): -4.03%
- growth at 10 µM (BT-549 [3]): -15.4%
- GI50 (NCI-H23): 1180 nM
- LC50 (NCI-H23): > 50000 nM
- TGI (NCI-H23): 3410 nM
- growth at 10 µM (HCT-15): 5.28%
- growth at 10 µM (MOLT-4): -26.3%
- growth at 10 µM (SK-OV-3): 4.13%
- GI50 (T47D [4]): 1650 nM
- TGI (T47D [4]): > 50000 nM
- CC50 (T47D [4]): 50000 nM
- GI50 (BT-549 [5]): 1250 nM
- LC50 (50% lethal concentration) (BT-549 [5]): 50000 nM
- TGI (BT-549 [5]): 3810 nM
- GI50 (RXF 393): 777 nM
- LC50 (concentration killing 50% of cells) (RXF 393): 4830 nM
- TGI (RXF 393): 1940 nM
- growth at 10 µM [6]: -18.4%
- growth at 10 µM (RPMI-8226): -14.8%
- growth at 10 µM (HOP-62): -29.9%
- growth at 10 µM (PC-3): -23%
- GI50 (SNB-19): 981 nM
- LC50 (concentration killing 50% of cells) (SNB-19): > 50000 nM
- TGI (SNB-19): 4000 nM
- growth at 10 µM (KM12): -27.8%
- growth at 10 µM (U-251): -82.2%
- growth at 10 µM (A549): -14%
- GI50 (COLO 205): 894 nM
- LC50 (concentration killing 50% of cells) (COLO 205): 3430 nM
- TGI (COLO 205): 1750 nM

Compound: COc1cc(-c2nn(-c3cccc(NC(=O)Nc4cc(C(F)(F)F)cc(C(F)(F)F)c4)c3)cc2-c2ccncc2)ccc1Cl
- GI50 (SK-MEL-28): 851 nM
- LC50 (SK-MEL-28): 3380 nM
- TGI (SK-MEL-28): 1700 nM
- growth at 10 µM [1]: -25.8%
- GI50 (CAKI-1): 993 nM
- TGI (CAKI-1): 3140 nM
- CC50 (CAKI-1): 49300 nM
- GI50 (HT-29): 702 nM
- TGI (HT-29): 1610 nM
- CC50 (HT-29): 3710 nM
- growth at 10 µM (MDA-MB-468): -25.4%
- GI50 (MDA-MB-435): 886 nM
- pIC50 (MDA-MB-435): 6.05
- TGI (MDA-MB-435): 1990 nM
- CC50 (MDA-MB-435): 4460 nM
- growth at 10 µM (SK-MEL-5): -96.1%
- growth at 10 µM (OVCAR-4): 17.2%
- growth at 10 µM (SN12C): -8.08%
- GI50 (SK-MEL-2): 1020 nM
- LC50 (50% lethal concentration) (SK-MEL-2): 3710 nM
- TGI (SK-MEL-2): 1950 nM
- growth at 10 µM (NCI-H460): -49.7%
- growth at 10 µM (TK-10): -26.7%
- growth at 10 µM (A498): -14.6%
- GI50 (K562): 363 nM
- TGI (K562): 3250 nM
- CC50 (K562): > 50000 nM
- growth at 10 µM (NCI-H522): -34.4%
- GI50 (MDA-MB-231): 664 nM
- LC50 (MDA-MB-231): 3000 nM
- TGI (MDA-MB-231): 1410 nM
- growth at 10 µM (T47D [2]): 4.45%
- growth at 10 µM (BT-549 [3]): -8.96%
- GI50 (NCI-H23): 1090 nM
- LC50 (NCI-H23): 29600 nM
- TGI (NCI-H23): 3340 nM
- growth at 10 µM (HCT-15): 2.59%
- growth at 10 µM (MOLT-4): -24.5%
- growth at 10 µM (SK-OV-3): -9.79%
- GI50 (T47D [4]): 1550 nM
- TGI (T47D [4]): > 50000 nM
- CC50 (T47D [4]): > 50000 nM
- GI50 (BT-549 [5]): 1210 nM
- LC50 (50% lethal concentration) (BT-549 [5]): 29600 nM
- TGI (BT-549 [5]): 3060 nM
- GI50 (RXF 393): 869 nM
- LC50 (concentration killing 50% of cells) (RXF 393): 4900 nM
- TGI (RXF 393): 2060 nM
- growth at 10 µM [6]: -10.8%
- growth at 10 µM (RPMI-8226): -11.7%
- growth at 10 µM (HOP-62): -77.6%
- growth at 10 µM (PC-3): -55.2%
- GI50 (SNB-19): 711 nM
- LC50 (concentration killing 50% of cells) (SNB-19): > 50000 nM
- TGI (SNB-19): 3670 nM
- growth at 10 µM (KM12): -14.8%
- growth at 10 µM (U-251): -81.8%
- growth at 10 µM (A549): -23.8%
- GI50 (COLO 205): 847 nM
- LC50 (concentration killing 50% of cells) (COLO 205): 2910 nM
- TGI (COLO 205): 1570 nM
